Measured values published in patent US10364222B2, “Cyclic amine derivative and medical use thereof” (Toray Industries, Inc., priority 2016, dated 2019).

Key:
[1] = system: IL-17 production in mouse splenocytes; assay: Suppressive effect on IL-17 production by IL-23 stimulation in mouse splenocytes; assay type: cell-based; conditions: Splenocyte, 72 h, at 5 μmol/L of the test compound, 10 ng/mL human IL-23, 3 days, read-out: IL-17 production inhibition rate (%)
Protocol: Using mouse splenocytes, the suppressive effect of the cyclic amine derivative (I) or a pharmacologically acceptable salt thereof on IL-17 production by IL-23 stimulation was evaluated by a partially modified method mentioned in The Journal of Biological Chemistry, 2003, Vol. 278, No. 3, p. 1910-1914.
A single cell suspension was prepared from the spleen of C57BL/6J mice (male, 7 to 23 weeks old) (Charles River Laboratories Japan, Inc.) and splenocytes were prepared using Histopaque-1083 (Sigma-Aldrich Japan). The culture medium was used by adding 10% FBS (Gibco), 50 U/mL of penicillin 50 μg/mL of streptomycin (Gibco), 50 μmol/L of 2-mercaptoethanol (Gibco), and 100 U/mL of human IL-2 (Cell Science & Technology Institute, Inc.) to RPMI1640 medium (Gibco). The test compound was dissolved in DMSO and then diluted with the culture medium to have a final concentration of DMSO of 0.1% before use. Splenocytes (3×10^5 cells/well) prepared in the culture medium were seeded in wells of a 96-well flat-bottom plate (Corning Incorporated), the test compound and 10 ng/mL of human IL-23 (R & D systems, Inc.) were added thereto, and the cells were cultured at 37° C. under 5% CO2 for 3 days. A well without addition of human IL-23 and without addition of the test compound and a well with addition of human IL-23 and without addition of the test compound were prepared. After completion of the culture, the culture supernatant was collected and the IL-17 production amount in the supernatant was determined by ELISA method (R & D systems, Inc.).
The IL-17 production inhibition rate (%) was calculated from Formula 2. IL-17 production inhibition rate(%)=(1−((IL-17 production amount with addition of IL-23 and with addition of the test compound)−(IL-17 production amount without addition of IL-23 and without addition of the test compound))/((IL-17 production amount with addition of IL-23 and without addition of the test compound)−(IL-17 production amount without addition of IL-23 and without addition of the test compound)))×100 Formula 2

[2] = molecular target: T1, ligand-binding domain of RORγ (RORγ-LBD) (Homo sapiens, UniProt P51449); assay: Inhibitory effect on RORγ-coactivator binding (LanthaScreen TR-FRET RORγ Coactivator Assay); conditions: at 33 μmol/L of the test compound; read-out: RORγ-coactivator binding inhibition rate (%)
T1 construct: purchased Invitrogen
T1 sequence (P51449 269-508 limits assumed): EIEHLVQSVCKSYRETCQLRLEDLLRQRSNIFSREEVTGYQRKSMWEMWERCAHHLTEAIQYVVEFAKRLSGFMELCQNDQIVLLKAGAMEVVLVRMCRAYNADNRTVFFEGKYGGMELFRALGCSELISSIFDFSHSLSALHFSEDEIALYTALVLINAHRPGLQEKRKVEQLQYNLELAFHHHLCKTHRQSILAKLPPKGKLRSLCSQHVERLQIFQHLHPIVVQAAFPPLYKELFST
Protocol: The inhibitory effect of the cyclic amine derivative (I) or a pharmacologically acceptable salt thereof on the binding between a ligand-binding domain of RORγ (hereinafter referred to as RORγ-LBD) and a coactivator was evaluated using Invitrogen's LanthaScreen™TR-FRET Retinoid-Related Orphan Receptor (ROR) gamma Coactivator Assay kit utilizing time-resolved fluorescence energy transfer (TR-FRET).
The test compound was dissolved in DMSO and diluted with TR-FRET Coregulator Buffer D (Invitrogen) containing 5 mmol/L of DTT to have a final DMSO concentration of 1% before use. To each well of a 384-well black plate (Corning Inc.), 4 nmol/L of GST-fused RORγ-LBD (Invitrogen) diluted with the buffer mentioned above and the test compound were added. A well without addition of the test compound and without addition of GST-fused RORγ-LBD (background) and a well without addition of the test compound and with addition of GST-fused RORγ-LBD (control) were prepared. Next, 150 nmol/L of fluorescein-labeled TRAP220/DRIP-2 (Invitrogen) diluted with the buffer mentioned above and 32 nmol/L of terbium-labeled anti-GST antibody (Invitrogen) were added to each well. After incubating the plate at room temperature for 16 to 24 hours, the fluorescence at 495 nm and 520 nm when excited at 320 nm was measured for each well and the ratio (fluorescence value at 520 nm/fluorescence value at 495 nm) was calculated.
The fold change with addition of the test compound (ratio with addition of the test compound/ratio of the background), the fold change of the control (ratio of the control/ratio of the background), and the fold change of the background (ratio of the background/ratio of the background) were calculated, and then the inhibition rate of binding between RORγ-LBD and a coactivator (hereinafter referred to as RORγ-coactivator binding inhibition rate) (%) was calculated from Formula 1: RORγ-coactivator binding inhibition rate(%)=(1−((Fold change with addition of the test compound)−(Fold change of the background))/((Fold change of the control)−(Fold change of the background)))×100 Formula 1

SMILES | inhibition at 33 µM [2] | inhibition at 5 µM [1]
COC(=O)CC(=O)N1CCCCC1C(=O)Nc1ccc(-c2ccccc2OC(F)(F)F)c(Cl)c1 (stereo not shown) [Example 43, methyl 3-(2-((2-chloro-2′-(trifluoromethoxy)-[1,1′-biphenyl]-4-yl)carbamoyl)piperidin-1-yl)-3-oxopropanoate] | 99% | 92.4%
COC(=O)CCC(=O)N1CCCCC1C(=O)Nc1ccc(-c2ccccc2OC(F)(F)F)c(Cl)c1 (stereo not shown) [Example 44, methyl 4-(2-((2-chloro-2′-(trifluoromethoxy)-[1,1′-biphenyl]-4-yl)carbamoyl)piperidin-1-yl)-4-oxobutanoate] | 97.1% | 91.5%
COCCC(=O)N1CCCCC1C(=O)Nc1ccc(-c2ccccc2OC(F)(F)F)c(Cl)c1 (stereo not shown) [Example 45, N-(2-chloro-2′-(trifluoromethoxy)-[1,1′-biphenyl]-4-yl)-1-(3-methoxypropanoyl)piperidine-2-carboxamide] | 92% | 99.9%
Cn1cc(C(=O)N2CCCCC2C(=O)Nc2ccc(-c3ccccc3OC(F)(F)F)c(Cl)c2)cn1 (stereo not shown) [Example 46, N-(2-chloro-2′-(trifluoromethoxy)-[1,1′-biphenyl]-4-yl)-1-(1-methyl-1H-pyrazole-4-carbonyl)piperidine-2-carboxamide] | 99.3% | 99.2%
CC(C)Oc1ccccc1-c1ccc(NC(=O)C2CCCCN2C(=O)CN(C)S(C)(=O)=O)cc1Cl (stereo not shown) [Example 49, N-(2-chloro-2′-isopropoxy-[1,1′-biphenyl]-4-yl)-1-(2-(N-methylmethylsulfonamide)acetyl)piperidine-2-carboxamide] | 99.3% | 98.3%
Cn1ccnc1CC(=O)N1CCCCC1C(=O)Nc1ccc(-c2ccccc2OC(F)(F)F)c(Cl)c1 (stereo not shown) [Example 50, N-(2-chloro-2′-(trifluoromethoxy)-[1,1′-biphenyl]-4-yl)-1-(2-(1-methyl-1H-imidazol-2-yl)acetyl)piperidine-2-carboxamide] | 101% | 94.5%
CN(CC(=O)N1CCCCC1C(=O)Nc1ccc(-c2ccccc2OC(F)(F)F)c(F)c1)S(C)(=O)=O (stereo not shown) [Example 51, N-(2-fluoro-2′-(trifluoromethoxy)-[1,1′-biphenyl]-4-yl)-1-(2-(N-methylmethylsulfonamide)acetyl)piperidine-2-carboxamide] | 100% | 98.6%
O=C(Nc1ccc(-c2ccccc2OC(F)(F)F)c(Cl)c1)C1CCCCN1C(=O)Cn1ccnc1 (stereo not shown) [Example 52, 1-(2-(1H-imidazol-1-yl)acetyl)-N-(2-chloro-2′-(trifluoromethoxy)-[1,1′-biphenyl]-4-yl)piperidine-2-carboxamide] | 97.3% | 99.3%
O=C(Nc1ccc(-c2ccccc2OC(F)(F)F)c(Cl)c1)C1CCCCN1C(=O)Cn1cnnn1 (stereo not shown) [Example 53, 1-(2-(1H-tetrazol-1-yl)acetyl)-N-(2-chloro-2′-(trifluoromethoxy)-[1,1′-biphenyl]-4-yl)piperidine-2-carboxamide] | 105% | 102%
Cc1cc(C)n(CC(=O)N2CCCCC2C(=O)Nc2ccc(-c3ccccc3OC(F)(F)F)c(Cl)c2)n1 (stereo not shown) [Example 55, 1-(2-(3,5-dimethyl-1H-pyrazol-1-yl)acetyl)-N-(2-chloro-2′-(trifluoromethoxy)-[1,1′-biphenyl]-4-yl)piperidine-2-carboxamide] | 104% | 99.7%
O=C(Nc1ccc(-c2ccccc2OC(F)(F)F)c(Cl)c1)[C@H]1CCCCN1C(=O)CCn1cnnn1 [Example 58, (R)-1-(3-(1H-tetrazol-1-yl)propanoyl)-N-(2-chloro-2′-(trifluoromethoxy)-[1,1′-biphenyl]-4-yl)piperidine-2-carboxamide] | 100% | 99.7%
O=C(Nc1ccc(-c2ccccc2OC(F)(F)F)c(Cl)c1)[C@H]1CCCCN1C(=O)CCn1ccnc1 [Example 59, (R)-1-(3-(1H-imidazol-1-yl)propanoyl)-N-(2-chloro-2′-(trifluoromethoxy)-[1,1′-biphenyl]-4-yl)piperidine-2-carboxamide] | 95.5% | 99.8%
O=C(Nc1ccc(-c2ccccc2OC(F)(F)F)c(Cl)c1)[C@H]1CCCCN1C(=O)Cn1ccnn1 [Example 64, (R)-1-(2-(1H-1,2,3-triazol-1-yl)acetyl)-N-(2-chloro-2′-(trifluoromethoxy)-[1,1′-biphenyl]-4-yl)piperidine-2-carboxamide] | 97.3% | 99.4%
O=C(Nc1ccc(-c2ccccc2OC(F)(F)F)c(Cl)c1)[C@H]1CCCCN1C(=O)Cn1ccnc1 [Example 65, (R)-1-(2-(1H-imidazol-1-yl)acetyl)-N-(2-chloro-2′-(trifluoromethoxy)-[1,1′-biphenyl]-4-yl)piperidine-2-carboxamide] | 91.7% | 99.6%

Second part, led by results:

inhibition at 33 µM [2] | SMILES | inhibition at 5 µM [1]
92.8% | O=C(Nc1ccc(-c2ccccc2OC(F)(F)F)c(Cl)c1)C1CCCCN1C(=O)CCO (stereo not shown) [Example 42, N-(2-chloro-2′-(trifluoromethoxy)-[1,1′-biphenyl]-4-yl)-1-(3-hydroxypropanoyl)piperidine-2-carboxamide] | 99.8%
102% | O=C(Nc1ccc(-c2ccccc2OC(F)(F)F)c(Cl)c1)C1CCCCN1C(=O)c1cn[nH]c1 (stereo not shown) [Example 48, N-(2-chloro-2′-(trifluoromethoxy)-[1,1′-biphenyl]-4-yl)-1-(1H-pyrazole-4-carbonyl)piperidine-2-carboxamide] | 99.4%
102% | O=C(Nc1ccc(-c2ccccc2OC(F)(F)F)c(Cl)c1)C1CCCCN1C(=O)Cc1ccco1 (stereo not shown) [Example 54, 1-(2-(furan-2-yl)acetyl)-N-(2-chloro-2′-(trifluoromethoxy)-[1,1′-biphenyl]-4-yl)piperidine-2-carboxamide] | 98.7%
104% | Cc1cc(CC(=O)N2CCCCC2C(=O)Nc2ccc(-c3ccccc3OC(F)(F)F)c(Cl)c2)on1 (stereo not shown) [Example 56, 1-(2-(3-methylisoxazol-5-yl)acetyl)-N-(2-chloro-2′-(trifluoromethoxy)-[1,1′-biphenyl]-4-yl)piperidine-2-carboxamide] | 107%
93.6% | Cc1ccn(CCC(=O)N2CCCC[C@@H]2C(=O)Nc2ccc(-c3ccccc3OC(F)(F)F)c(Cl)c2)n1 [Example 60, (R)-1-(3-(3-methyl-1H-pyrazol-1-yl)propanoyl)-N-(2-chloro-2′-(trifluoromethoxy)-[1,1′-biphenyl]-4-yl)piperidine-2-carboxamide] | 99.7%
102% | O=C(Nc1ccc(-c2ccccc2OC(F)(F)F)c(Cl)c1)[C@H]1CCCCN1C(=O)Cn1cccn1 [Example 61, (R)-1-(2-(1H-pyrazol-1-yl)acetyl)-N-(2-chloro-2′-(trifluoromethoxy)-[1,1′-biphenyl]-4-yl)piperidine-2-carboxamide] | 98.8%
